Reference: the supplement of paper PMC5908809

How the values were obtained:
DERL-7 (IL-2 2.5 ng/mL) [1] = assay: percent inhibition of viability; higher = more inhibition; conditions: 72 h
KAI3 (IL-2 2.5 ng/mL) [2] = assay: as above; conditions: 72 h
KHYG-1 (IL-2 2.5 ng/mL) [3] = assay: as above; conditions: 72 h
NK-92 (IL-2 2.5 ng/mL) [4] = assay: as above; conditions: 72 h
NK-YS (IL-2 2.5 ng/mL) [5] = assay: as above; conditions: 72 h
NKL (IL-2 2.5 ng/mL) [6] = assay: as above; conditions: 72 h
SNK-6 (IL-2 2.5 ng/mL) [7] = assay: as above; conditions: 72 h
YT (IL-2 2.5 ng/mL) [8] = assay: as above; conditions: 72 h
[9] = tested on: normal primary NK cells, pool 1 (3 donors) (IL-2 2.5 ng/mL); assay: as above; conditions: 72 h
[10] = tested on: normal primary NK cells, pool 1 (3 donors), resting (IL-2 0 ng/mL); assay: as above; conditions: 72 h
DERL-7 (IL-2 2.5 ng/mL) [11] = assay: drug sensitivity score (DSS) (DSS units); higher = more sensitive; extreme values may be limits of the assay; conditions: 72 h
KAI3 (IL-2 2.5 ng/mL) [12] = assay: as above; conditions: 72 h
KHYG-1 (IL-2 2.5 ng/mL) [13] = assay: as above; conditions: 72 h
NK-92 (IL-2 2.5 ng/mL) [14] = assay: as above; conditions: 72 h
NK-YS (IL-2 2.5 ng/mL) [15] = assay: as above; conditions: 72 h
NKL (IL-2 2.5 ng/mL) [16] = assay: as above; conditions: 72 h
SNK-6 (IL-2 2.5 ng/mL) [17] = assay: as above; conditions: 72 h
YT (IL-2 2.5 ng/mL) [18] = assay: as above; conditions: 72 h
[19] = tested on: normal primary NK cells, pool 1 (3 donors) (IL-2 2.5 ng/mL); assay: as above; conditions: 72 h
[20] = tested on: normal primary NK cells, pool 1 (3 donors), resting (IL-2 0 ng/mL); assay: as above; conditions: 72 h
[21] = tested on: normal NK cells expanded with K562-aAPC; assay: percent inhibition of viability; higher = more inhibition; conditions: 72 h, IL-2 2.5 ng/mL
Protocol: (§1)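 Drug sensitivity and resistance testing on K562-aAPC-expanded normal NK cells: 5 concentrations (10-fold steps over a 10,000-fold range), 72 h at 37 °C, viability by CellTiter-Glo normalised to DMSO and benzethonium chloride controls; DSS from the fitted curve.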

IMC-1 (IL-2 20 ng/mL) [22] = assay: as above; conditions: 72 h
[23] = tested on: normal primary NK cells, pool 2 (3 donors) (IL-2 2.5 ng/mL); assay: as above; conditions: 72 h
[24] = tested on: normal primary NK cells, pool 3 (3 donors) (IL-2 2.5 ng/mL); assay: as above; conditions: 72 h
[25] = tested on: normal NK cells expanded with K562-aAPC; assay: drug sensitivity score (DSS) (DSS units); higher = more sensitive; extreme values may be limits of the assay; conditions: 72 h; IL-2 2.5 ng/mL
Protocol: as §1

IMC-1 (IL-2 20 ng/mL) [26] = assay: as above; conditions: 72 h
[27] = tested on: normal primary NK cells, pool 2 (3 donors) (IL-2 2.5 ng/mL); assay: as above; conditions: 72 h
[28] = tested on: normal primary NK cells, pool 3 (3 donors) (IL-2 2.5 ng/mL); assay: as above; conditions: 72 h

CC(C)N(C[C@H]1O[C@@H](n2cnc3c(N)ncnc32)[C@H](O)[C@@H]1O)[C@H]1C[C@@H](CCc2nc3cc(C(C)(C)C)ccc3[nH]2)C1 [EPZ-5676] (max concentration tested 1000 nM)
percent inhibition of viability [%]
Conditions | DERL-7 (IL-2 2.5 ng/mL) [1] | KAI3 (IL-2 2.5 ng/mL) [2] | KHYG-1 (IL-2 2.5 ng/mL) [3] | NK-92 (IL-2 2.5 ng/mL) [4] | NK-YS (IL-2 2.5 ng/mL) [5] | NKL (IL-2 2.5 ng/mL) [6] | SNK-6 (IL-2 2.5 ng/mL) [7] | YT (IL-2 2.5 ng/mL) [8] | [9] | [10]
0.1 nM | 0.43 | -1.4 | -0.41 | -12.3 | -3.52 | 0.4 | -2.4 | -1.48 | 2.06 | 9.51
1 nM | 5.23 | -5 | 1.41 | -21.5 | -3.4 | -6 | 4.63 | -5.01 | 11 | 20.3
10 nM | 1.69 | -1.28 | -1.91 | -14.1 | 2.56 | -2.76 | 8.19 | -2.34 | 9.38 | 21
100 nM | 4.27 | 5.24 | 7.32 | 5.88 | 4.51 | 18.4 | 3.31 | 7.03 | 13.4 | 20.5
1000 nM | -4.86 | 11.9 | 19.1 | 24.7 | 16.4 | 28.7 | 35.8 | 14.4 | 15.7 | 23.9

Conditions | drug sensitivity score
DERL-7 (IL-2 2.5 ng/mL) [11] | 0
KAI3 (IL-2 2.5 ng/mL) [12] | 0.23
KHYG-1 (IL-2 2.5 ng/mL) [13] | 1.32
NK-92 (IL-2 2.5 ng/mL) [14] | 1.76
NK-YS (IL-2 2.5 ng/mL) [15] | 0.65
NKL (IL-2 2.5 ng/mL) [16] | 3.3
SNK-6 (IL-2 2.5 ng/mL) [17] | 2.24
YT (IL-2 2.5 ng/mL) [18] | 0.67
[19] | 1.75
[20] | 0

Cn1cc(C[C@@H](N)C(=O)O)c2ccccc21 [1-methyl-D-tryptophan] (max concentration tested 5000 nM)
percent inhibition of viability [%]
Conditions | 0.5 nM | 5 nM | 50 nM | 500 nM | 5000 nM
IMC-1 (IL-2 20 ng/mL) [22] | -6.61 | -9.96 | -5.67 | -2.82 | 0.08
[21] | -12.1 | -7.01 | -8.73 | 0.95 | 6.01
[23] | -6.45 | -5.59 | -1.81 | 4.04 | 6.29
[24] | -7.11 | -12.2 | 0.9 | 5.49 | 5.66

Conditions | drug sensitivity score
IMC-1 (IL-2 20 ng/mL) [26] | 0
[25] | 0
[27] | 0
[28] | 0
